From patent US20240400560A1, “BICYCLIC HETEROCYCLIC DERIVATIVE HAVING VIRAL GROWTH INHIBITORY ACTIVITY AND PHARMACEUTICAL COMPOSITION CONTAINING SAME” (Shionogi & Co., Ltd., priority 2021, published 2024)
Like-named read-outs stand apart in the source and are kept apart here.

Legend:
SARS-CoV-2 3CL protease = SARS-CoV-2 3CL protease (Severe acute respiratory syndrome coronavirus 2, UniProt P0DTD1); test: Inhibitory activity test against SARS-CoV-2 3CL proteases; assay type: biochemical
SARS-CoV-2 = test: Inhibitory activity of cytopathic effect (CPE) in HEK293T/ACE2-TMPRSS2 cells; assay type: cell-based; conditions: Severe acute respiratory syndrome coronavirus 2, HEK-293T, 72 h
[1] = read-out: IC50 (50% SARS-CoV-2 3CL protease inhibitory concentration)
[2] = HEK293T/ACE2-TMPRSS2 cells, cultured 3 days, CellTiter-Glo 2.0 luminescence, read-out: EC50 (50% SARS-CoV-2 infected cell death inhibitory concentration)
[3] = IC50 (50% SARS-CoV-2 3CL protease inhibitory concentration)
[4] = read-out: EC50 (50% SARS-CoV-2 infected cell death inhibitory concentration)
[5] = 50% SARS-CoV-2 infected cell death inhibitory concentration, HEK293T/ACE2-TMPRSS2 cells, CellTiter-Glo 2.0 after 3 days culture, read-out: EC50

Row | SMILES | IC50 (SARS-CoV-2 3CL protease; [1]) [nM] | EC50 (SARS-CoV-2; [2]) [nM] | IC50 (SARS-CoV-2 3CL protease; [3]) [nM] | EC50 (SARS-CoV-2; [4]) [nM] | EC50 (SARS-CoV-2; [5]) [nM]
1 | COC[C@@H]1CCN(c2cc3c(c(OC)n2)c(=O)n(-c2cncc(Cl)c2)c(=O)n3-c2ccc(F)c(Cl)c2)C1 [Compound I-1008] | < 100 | < 100 | – | – | –
2 | COc1nc(N2[C@@H]3CC[C@H]2COC3)cc2c1c(=O)n(-c1cnc3cc(F)ccn13)c(=O)n2-c1ccc(F)c(Cl)c1 [Compound I-1001] | – | – | < 100 | < 100 | –
3 | Cn1cnc(Cn2c(=O)c3c(F)c(C4CC4)c(-c4cc(C#N)ccc4Cl)cc3n(Cc3cc(F)c(F)c(Cl)c3)c2=O)n1 [Compound I-0638] | < 100 | < 100 | – | – | –
4 | COc1nc(-c2cc(C#N)ccc2Cl)cc2c1c(=O)n(-c1cnc3ccccn13)c(=O)n2Cc1ccc(F)c(C#N)c1 [Compound I-0842] | 34 | – | – | – | 88.2
5 | COc1nc2c(=O)n(Cc3ncn(C)n3)c(=O)n(Cc3cc(F)c(F)c(Cl)c3)c2cc1-c1cc(N=S(C)(C)=O)ccc1Cl [Compound I-0887] | 9.8 | – | – | – | 98.2
6 | [2H]C([2H])([2H])O[C@@H]1CCN(c2cc3c(c(OC)n2)c(=O)n(-c2cncc(Cl)c2)c(=O)n3-c2ccc(F)c(F)c2)C1 [Compound I-0973] | < 100 | < 100 | – | – | –
7 | COCCNc1cc2c(c(OC)n1)c(=O)n(-c1cnc3cc(F)ccn13)c(=O)n2-c1ccc(F)c(Cl)c1 [Compound I-1049] | – | < 100 | < 100 | – | –
8 | O=c1c2c(F)cc(N3[C@@H]4CC[C@H]3CNC4)cc2n(Cc2cc(F)c(F)c(Cl)c2)c(=O)n1-c1cnc2ccccn12 [Compound I-0548] | – | – | < 100 | < 100 | –
9 | COc1nc(N2CC[C@@H](F)C2)cc2c1c(=O)n(-c1cnc3cc(F)ccn13)c(=O)n2-c1ccc(F)c(Cl)c1 [Compound I-0746] | 1.4 | – | – | – | 5.6
10 | COc1nc(N2CC[C@@H](O)C2)cc2c1c(=O)n(-c1cncc(Cl)c1)c(=O)n2-c1ccc(F)c(F)c1 [Compound I-0979] | < 100 | < 100 | – | – | –
11 | [2H]C([2H])([2H])O[C@@H]1CCN(c2cc3c(c(OC)n2)c(=O)n(-c2cncc(OC(F)F)c2)c(=O)n3-c2ccc(F)c(Cl)c2)C1 [Compound I-0971] | < 100 | < 100 | – | – | –
12 | O=c1c2c(=O)n(-c3cnc4cc(F)ccn34)c(=O)n(-c3ccc(F)c(Cl)c3)c2cc2n1CC[C@@H]1CCCN21 [Compound I-0955] | 3.1 | – | – | – | 540
13 | COc1nc(N2CCC(O)(C(F)(F)F)C2)cc2c1c(=O)n(-c1cncc(Cl)c1)c(=O)n2-c1ccc(F)c(Cl)c1 (stereo not drawn) [Compound I-1064] | < 100 | < 100 | – | – | –
14 | COc1cc(N2CCCC2)cc2c1c(=O)n(Cc1ncn(C)n1)c(=O)n2Cc1cc(Cl)ccc1Cl [Compound I-0784] | < 100 | 100 to 1000 | – | – | –
15 | COc1cc(-c2ccc(CC#N)cc2Cl)cc2c1c(=O)n(Cc1ncn(C)n1)c(=O)n2Cc1cc(F)c(F)c(F)c1 [Compound I-0907] | < 100 | 100 to 1000 | – | – | –
16 | [2H]C([2H])([2H])n1cnc(Cn2c(=O)c3c(OC)nc(N4CC[C@@H](F)C4)cc3n(Cc3cc(F)c(F)c(F)c3)c2=O)n1 [Compound I-0917] | – | < 100 | < 100 | – | –
17 | COc1nc(N2CCOCC2)cc2c1c(=O)n(-c1cncc(Cl)c1)c(=O)n2-c1ccc(F)c(Cl)c1 [Compound I-1013] | < 100 | < 100 | – | – | –
18 | COc1cc(-c2cc(C#N)ccc2Br)cc2c1c(=O)n(Cc1ncn(C)n1)c(=O)n2Cc1cc(F)c(F)c(F)c1 [Compound I-0891] | 10 | – | – | – | 12.1
19 | COc1nc(N2CCOC[C@H]2C)cc2c1c(=O)n(-c1cnc3cc(F)ccn13)c(=O)n2-c1ccc(F)c(Cl)c1 [Compound I-1054] | < 100 | < 100 | – | – | –
20 | COc1nc2c(=O)n(Cc3ncn(C)n3)c(=O)n(Cc3cc(F)c(F)c(C#N)c3)c2cc1-c1cc(C#N)ccc1Cl [Compound I-0721] | < 100 | < 100 | – | – | –
21 | [2H]C([2H])([2H])O[C@@H]1CCN(c2cc3c(c(OC)n2)c(=O)n(-c2cnc4cc(F)ccn24)c(=O)n3-c2ccc(F)c(C(F)F)c2)C1 [Compound I-0981] | < 100 | < 100 | – | – | –
22 | Cl.[2H]C([2H])([2H])O[C@@H]1CCN(c2cc3c(c(OC)n2)c(=O)n(-c2cnc4cc(F)c(F)cn24)c(=O)n3-c2ccc(F)c(Cl)c2)C1 [Compound I-0962] | < 100 | < 100 | – | – | –
23 | COc1nc(N2CC[C@@H](C#N)C2)cc2c1c(=O)n(-c1cnc3cc(F)ccn13)c(=O)n2-c1ccc(F)c(Cl)c1 [Compound I-0652] | 1.4 | – | – | – | 7.43
24 | COc1nc(N2CC[C@@H](O)C2)cc2c1c(=O)n(-c1cncc(OCF)c1)c(=O)n2-c1ccc(F)c(F)c1 [Compound I-1025] | < 100 | < 100 | – | – | –
